Data as given in ChEMBL document CHEMBL3885861, “Open TG-GATES”.

Organism: Rattus norvegicus
Assay: Open TG-GATES - Regimen: Single
Assay type: toxicity, organism-based, Sprague-Dawley
Set-up: regimen Single, gender Male, age 6 weeks
Details: in vivo, po, route gavage; for gamma-GTP / ALP / ALT / AST / BUN / CRE / DBIL / GLC / IP / K / LDH / Na / PL / RALB / TBIL / TC / TG / TP: tissue Plasma; for APTT / Bas / Eos / Fbg / Hb / Ht / Lym / MCHC / MCV / Mono / Neu / PT / Plat / RBC / Ret / WBC: tissue Blood; for KIDNEY_L / KIDNEY_R / KIDNEY_TOTAL: tissue Kidney; for LIVER: tissue Liver
[1] = 300 mg/kg, 24 h, dose level Low

C#C[C@]1(O)CC[C@H]2[C@@H]3CCC4=Cc5oncc5C[C@]4(C)[C@H]3CC[C@@]21C [DANAZOL]
gamma-GTP (0 mg/kg, 24 h, dose level Control): 2.2 IU/L | TERMINAL_BW (300 mg/kg, 3 h, dose level Low): 219.6 g | APTT (300 mg/kg, 3 h, dose level Low): 23.3 s | Bas (300 mg/kg, 3 h, dose level Low): 0% | Eos (300 mg/kg, 3 h, dose level Low): 0.6% | Fbg (300 mg/kg, 3 h, dose level Low): 297.4 mg/dL | Hb (300 mg/kg, 3 h, dose level Low): 13.6 g/dL | Ht (300 mg/kg, 3 h, dose level Low): 40.9% | Lym (300 mg/kg, 3 h, dose level Low): 84.4% | MCHC (300 mg/kg, 3 h, dose level Low): 33.3% | MCV (300 mg/kg, 3 h, dose level Low): 62.6 fL | Mono (300 mg/kg, 3 h, dose level Low): 1.6% | Neu (300 mg/kg, 3 h, dose level Low): 12.6% | PT (300 mg/kg, 3 h, dose level Low): 15.8 s | Plat (300 mg/kg, 3 h, dose level Low): 102 x10_4/uL | RBC (300 mg/kg, 3 h, dose level Low): 654 x10_4/ul | Ret (300 mg/kg, 3 h, dose level Low): 7.2% | WBC (300 mg/kg, 3 h, dose level Low): 80 x10_2/uL | KIDNEY_L (300 mg/kg, 3 h, dose level Low): 0.9 g | KIDNEY_R (300 mg/kg, 3 h, dose level Low): 1 g | KIDNEY_TOTAL (300 mg/kg, 3 h, dose level Low): 1.9 g | LIVER (300 mg/kg, 3 h, dose level Low): 9.9 g | ALP (300 mg/kg, 3 h, dose level Low): 1338.8 IU/L | ALT (300 mg/kg, 3 h, dose level Low): 43.4 IU/L | AST (300 mg/kg, 3 h, dose level Low): 77.6 IU/L | BUN (300 mg/kg, 3 h, dose level Low): 15.4 mg/dL | CRE (300 mg/kg, 3 h, dose level Low): 0.2 mg/dL | DBIL (300 mg/kg, 3 h, dose level Low): 0 mg/dL | GLC (300 mg/kg, 3 h, dose level Low): 178.6 mg/dL | IP (300 mg/kg, 3 h, dose level Low): 8.2 mg/dL | K (300 mg/kg, 3 h, dose level Low): 4.3 meq/L | LDH (300 mg/kg, 3 h, dose level Low): 149 IU/L | Na (300 mg/kg, 3 h, dose level Low): 141.6 meq/L | PL (300 mg/kg, 3 h, dose level Low): 131.8 mg/dL | RALB (300 mg/kg, 3 h, dose level Low): 2.9 g/dL | TBIL (300 mg/kg, 3 h, dose level Low): 0.016 mg/dL | TC (300 mg/kg, 3 h, dose level Low): 68.4 mg/dL | TG (300 mg/kg, 3 h, dose level Low): 87 mg/dL | TP (300 mg/kg, 3 h, dose level Low): 5.5 g/dL | gamma-GTP (300 mg/kg, 3 h, dose level Low): 1.8 IU/L | APTT (300 mg/kg, 6 h, dose level Low): 23.9 s | Bas (300 mg/kg, 6 h, dose level Low): 0% | Eos (300 mg/kg, 6 h, dose level Low): 0.8% | Fbg (300 mg/kg, 6 h, dose level Low): 284.6 mg/dL | Hb (300 mg/kg, 6 h, dose level Low): 13 g/dL | Ht (300 mg/kg, 6 h, dose level Low): 40.1% | Lym (300 mg/kg, 6 h, dose level Low): 76.8% | MCHC (300 mg/kg, 6 h, dose level Low): 32.4% | MCV (300 mg/kg, 6 h, dose level Low): 63.6 fL | Mono (300 mg/kg, 6 h, dose level Low): 2.6% | Neu (300 mg/kg, 6 h, dose level Low): 18.8% | PT (300 mg/kg, 6 h, dose level Low): 16.7 s | Plat (300 mg/kg, 6 h, dose level Low): 120.1 x10_4/uL | RBC (300 mg/kg, 6 h, dose level Low): 631.8 x10_4/ul | Ret (300 mg/kg, 6 h, dose level Low): 7.6% | WBC (300 mg/kg, 6 h, dose level Low): 85.9 x10_2/uL | KIDNEY_L (300 mg/kg, 6 h, dose level Low): 0.9 g | KIDNEY_R (300 mg/kg, 6 h, dose level Low): 0.9 g | KIDNEY_TOTAL (300 mg/kg, 6 h, dose level Low): 1.9 g | LIVER (300 mg/kg, 6 h, dose level Low): 9 g | ALP (300 mg/kg, 6 h, dose level Low): 1332 IU/L | ALT (300 mg/kg, 6 h, dose level Low): 35.4 IU/L | AST (300 mg/kg, 6 h, dose level Low): 70.2 IU/L | BUN (300 mg/kg, 6 h, dose level Low): 10.2 mg/dL | CRE (300 mg/kg, 6 h, dose level Low): 0.2 mg/dL | DBIL (300 mg/kg, 6 h, dose level Low): 0.004 mg/dL | GLC (300 mg/kg, 6 h, dose level Low): 177.8 mg/dL | IP (300 mg/kg, 6 h, dose level Low): 9 mg/dL | K (300 mg/kg, 6 h, dose level Low): 4.3 meq/L | LDH (300 mg/kg, 6 h, dose level Low): 150.6 IU/L | Na (300 mg/kg, 6 h, dose level Low): 142.2 meq/L | PL (300 mg/kg, 6 h, dose level Low): 128.6 mg/dL | RALB (300 mg/kg, 6 h, dose level Low): 3 g/dL | TBIL (300 mg/kg, 6 h, dose level Low): 0.032 mg/dL | TC (300 mg/kg, 6 h, dose level Low): 64.2 mg/dL | TG (300 mg/kg, 6 h, dose level Low): 58 mg/dL | TP (300 mg/kg, 6 h, dose level Low): 5.3 g/dL | gamma-GTP (300 mg/kg, 6 h, dose level Low): 1.6 IU/L | TERMINAL_BW (300 mg/kg, 9 h, dose level Low): 214.6 g | APTT (300 mg/kg, 9 h, dose level Low): 22.8 s | Bas (300 mg/kg, 9 h, dose level Low): 0% | Eos (300 mg/kg, 9 h, dose level Low): 0.8% | Fbg (300 mg/kg, 9 h, dose level Low): 295.4 mg/dL | Hb (300 mg/kg, 9 h, dose level Low): 13 g/dL | Ht (300 mg/kg, 9 h, dose level Low): 39.6% | Lym (300 mg/kg, 9 h, dose level Low): 78.6% | MCHC (300 mg/kg, 9 h, dose level Low): 32.8% | MCV (300 mg/kg, 9 h, dose level Low): 61.1 fL | Mono (300 mg/kg, 9 h, dose level Low): 2.4% | Neu (300 mg/kg, 9 h, dose level Low): 17.8% | PT (300 mg/kg, 9 h, dose level Low): 16.7 s | Plat (300 mg/kg, 9 h, dose level Low): 117.4 x10_4/uL | RBC (300 mg/kg, 9 h, dose level Low): 650.2 x10_4/ul | Ret (300 mg/kg, 9 h, dose level Low): 7.4% | WBC (300 mg/kg, 9 h, dose level Low): 72.2 x10_2/uL | KIDNEY_L (300 mg/kg, 9 h, dose level Low): 1 g | KIDNEY_R (300 mg/kg, 9 h, dose level Low): 1 g | KIDNEY_TOTAL (300 mg/kg, 9 h, dose level Low): 2 g | LIVER (300 mg/kg, 9 h, dose level Low): 9.5 g | ALP (300 mg/kg, 9 h, dose level Low): 1341.8 IU/L | ALT (300 mg/kg, 9 h, dose level Low): 35.8 IU/L | AST (300 mg/kg, 9 h, dose level Low): 66.2 IU/L | BUN (300 mg/kg, 9 h, dose level Low): 10.8 mg/dL | CRE (300 mg/kg, 9 h, dose level Low): 0.1 mg/dL | DBIL (300 mg/kg, 9 h, dose level Low): 0.002 mg/dL | GLC (300 mg/kg, 9 h, dose level Low): 185.8 mg/dL | IP (300 mg/kg, 9 h, dose level Low): 9.8 mg/dL | K (300 mg/kg, 9 h, dose level Low): 4.3 meq/L | LDH (300 mg/kg, 9 h, dose level Low): 132 IU/L | Na (300 mg/kg, 9 h, dose level Low): 142.4 meq/L | PL (300 mg/kg, 9 h, dose level Low): 109.4 mg/dL | RALB (300 mg/kg, 9 h, dose level Low): 2.9 g/dL | TBIL (300 mg/kg, 9 h, dose level Low): 0.024 mg/dL | TC (300 mg/kg, 9 h, dose level Low): 54.2 mg/dL | TG (300 mg/kg, 9 h, dose level Low): 57.2 mg/dL | TP (300 mg/kg, 9 h, dose level Low): 5.3 g/dL | gamma-GTP (300 mg/kg, 9 h, dose level Low): 1.8 IU/L | TERMINAL_BW [1]: 226.8 g | APTT [1]: 23.3 s | Bas [1]: 0% | Eos [1]: 0.6% | Fbg [1]: 307.6 mg/dL | Hb [1]: 13.2 g/dL | Ht [1]: 40.1% | Lym [1]: 81.8% | MCHC [1]: 32.9% | MCV [1]: 62.6 fL | Mono [1]: 2.2% | Neu [1]: 14.6% | PT [1]: 17 s | Plat [1]: 116.4 x10_4/uL | RBC [1]: 639.6 x10_4/ul | Ret [1]: 7.3% | WBC [1]: 87.1 x10_2/uL | KIDNEY_L [1]: 1 g | KIDNEY_R [1]: 1.1 g | KIDNEY_TOTAL [1]: 2.1 g | LIVER [1]: 11.5 g | ALP [1]: 1893.6 IU/L | ALT [1]: 37.4 IU/L | AST [1]: 66.4 IU/L | BUN [1]: 15.8 mg/dL | CRE [1]: 0.2 mg/dL | DBIL [1]: 0 mg/dL | GLC [1]: 187.6 mg/dL | IP [1]: 7.2 mg/dL | K [1]: 4.3 meq/L | LDH [1]: 167 IU/L | Na [1]: 141.2 meq/L | PL [1]: 130 mg/dL | RALB [1]: 3.1 g/dL | TBIL [1]: 0.002 mg/dL | TC [1]: 48.2 mg/dL | TG [1]: 223.8 mg/dL | TP [1]: 5.6 g/dL | gamma-GTP [1]: 1.4 IU/L
